Measurements from patent publication US20200087258A1, “INHIBITOR OF CITRATE TRANSPORTER AND THEIR USE IN THERAPY” (Eternygen GmbH, priority 2017, published 2020).

Assays:
INDY [1] = target: INDY (Homo sapiens, UniProt Q86YT5); test: 14C-citrate uptake in HepG2 cells endogenously expressing INDY (NaCT); format: cell-based; settings: endogenous INDY
Procedure, shortened: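 HepG2 cells, which express INDY endogenously, were preincubated with compound for 5 min at 37 °C in pH 6.5 Na+ citrate uptake buffer. 14C-citrate ([…]) was then added for 90 min at 37 °C. After washing and NaOH lysis, uptake was measured by scintillation counting, with 5 mM citrate as positive control.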

GLT-1 = target: T1, GLT-1 (Homo sapiens, UniProt P43004); test: 3H-glutamate uptake counter assay in HEK293 cells overexpressing human GLT-1; format: cell-based
T1 construct: host or cells: HEK293 (virus made in GP293 packaging cells)
Method: (§1) The compound was obtained by screening of a library containing more than 50,000 lead-like compounds and fragments. The library was tested using a functional citrate uptake assay with HEK293 cells overexpressing recombinant human INDY. The following hit confirmation was conducted in the same assay system. To confirm the activity of selected compounds on the target INDY another cell assay was conducted. In this assay system citrate uptake was measured using HepG2 cells which endogenously express INDY. Furthermore selectivity of selected compounds was tested for two other transporters in different assay systems. The first transporter was the glutamate transporter GLT-1 tested in a glutamate uptake assays using HEK293 cells overexpressing recombinant human GLT-1. The second transporter was the glucose transporter GLUT1 tested in a glucose uptake assay using Huh-7 cells which endogenously express GLUT1. Compounds were considered to be selective with an at least 5-fold higher activity for INDY than for the other two transporters.
(§2) Cells were maintained in cell medium using cell culture grade flasks (CellSTACK Corning, 500 cm2 dishes or T175 depending on cell number). The selection antibiotic and G418 (800 μg/ml) was added during cultivation but not for seeding into assay plates. For splitting, cells were washed with PBS (w/o Ca2+, Mg2+, phenol red) and detached with Trypsin/EDTA. Throughout cultivation cells were kept sub-confluent. Detached cells (50,000 cells/well) were seeded in 96-well plates (white, clear bottom from Corning #655098) and incubated over night before usage in the assay. The following media were used. For HEK293 cells expressing INDY MEM (PAA)+10% FCS+1×P/S+2 mM L-Gln; for HEK293 cells expressing GLT-1 DMEM (Gibco)+10% FCS+400 µg/ml G418; for Huh7 cells DMEM (Gibco)+10% FCS+2 mM L-Gin (+1×P/S); for HepG2 cells MEM (PAA, Cat # E15-024)+10% FCS+2 mM L-Gin+1×NEAA+1 mM Na-Pyruvat
The following assay buffers for the particular uptake reaction were used. Citrate uptake buffer: 120 mM NaCl, 5.4 mM KCl, 0.8 mM MgSO4, 5 mM glucose, 1.8 mM CaCl2, 25 mM Hepes, 25 mM MES, pH 6.5. Glutamate uptake buffer: HBSS, 1 mM CaCl2, 1 mM MgCl2, 20 mM Hepes pH 7.4. Glucose uptake buffer: 25 mM Hepes+25 mM MES pH 7.4, 120 mM NaCl, 5.4 mM KCl, 1.8 mM CaCl2, 0.8 mM MgSO4.
As a counter assay, Glutamate uptake by the GLT-1 transporter was used. The principle of the assay is to measure the uptake of ^3H labelled glutamate into HEK cells, which overexpress human GLT-1.
The generation of a GLT-1 cell line was performed as follows: human GLT11 isoform sv1 cDNA (Origene # RC223924) was cloned into vector pFB-Neo-CMV-hGLT1 using QIAfilter Plasmid Midi Kit (Qiagen). Virus was generated in GP293 packaging cells (transfection of plasmid with Lipofectamine 2000+OptiMEM). For transfection into HEK cells GP293, supernatant containing virus was passed through a 0.45 micron sterile filter and DEAE-dextran was added at […] final concentration. The solution was used to transfect HEK293 cells at 37° C., 8.5% CO2. After 24 h selection marker G418 at 400 μg/ml was added and cultivation medium performed in DMEM 10% FBS.
The assay was performed in a 96-well format using repeated washing steps, cell lysis and addition of scintillation fluid. Assay buffer was HBSS, 1 mM CaCl2, 1 mM MgCl2, […] pH 7.4. Cells were seeded into white clear-bottom 96-well plates (50,000/well) in the presence of Poly-D-Lysine and incubated at 37° C. for 16-24 hours. Subsequently the plates were washed once with assay buffer using automated washing/LS 405 Selectors, BioTek ending with a buffer volume of 40 μl. Then 5 μl of compound solution in assay buffer was added and incubated for 20 min at 37° C. in cell incubator, HERA cell Heraeus. Afterwards 10 μl of substrate 3H-Glu (3 nM) were added and incubated for another 20 min at 37° C. in cell incubator, HERAcell. Then the plates were washed once with 200 μl cold assay buffer and 150 μl scintillation fluid was added. […]

GLUT1 = target: T2, GLUT1 (Homo sapiens, UniProt P11166); test: 3H-glucose uptake counter assay in Huh7 cells endogenously expressing GLUT1; format: cell-based; settings: endogenous GLUT1
T2 construct: Huh-7 cells which endogenously express GLUT1; endogenous in cells; host or cells: Huh-7
T2 sequence (P11166 1-492): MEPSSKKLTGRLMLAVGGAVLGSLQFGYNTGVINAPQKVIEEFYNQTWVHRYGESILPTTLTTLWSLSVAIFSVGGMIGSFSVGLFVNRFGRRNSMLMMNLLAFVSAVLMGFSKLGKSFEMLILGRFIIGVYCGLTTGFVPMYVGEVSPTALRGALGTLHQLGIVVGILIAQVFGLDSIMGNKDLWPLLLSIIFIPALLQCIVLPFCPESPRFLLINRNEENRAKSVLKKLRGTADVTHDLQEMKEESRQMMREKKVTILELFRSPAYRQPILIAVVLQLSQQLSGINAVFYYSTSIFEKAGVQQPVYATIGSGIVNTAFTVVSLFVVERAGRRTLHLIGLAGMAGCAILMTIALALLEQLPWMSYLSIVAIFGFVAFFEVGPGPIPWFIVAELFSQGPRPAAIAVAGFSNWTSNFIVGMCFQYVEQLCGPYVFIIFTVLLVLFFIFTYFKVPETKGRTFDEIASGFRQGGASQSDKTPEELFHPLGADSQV
Method: as §1
as §2, with “Na-Pyruvat […]” for “Na-Pyruvat”
Glucose uptake in Huh7 cells was measured as a counter assay. […] After 20 min incubation at RT plates were measured using TopCount system, Perkin Elmer. […]

Indy [2] = settings: at 0.1 mM; cited from earlier work

INDY, sequence (Q86YT5 whole entry): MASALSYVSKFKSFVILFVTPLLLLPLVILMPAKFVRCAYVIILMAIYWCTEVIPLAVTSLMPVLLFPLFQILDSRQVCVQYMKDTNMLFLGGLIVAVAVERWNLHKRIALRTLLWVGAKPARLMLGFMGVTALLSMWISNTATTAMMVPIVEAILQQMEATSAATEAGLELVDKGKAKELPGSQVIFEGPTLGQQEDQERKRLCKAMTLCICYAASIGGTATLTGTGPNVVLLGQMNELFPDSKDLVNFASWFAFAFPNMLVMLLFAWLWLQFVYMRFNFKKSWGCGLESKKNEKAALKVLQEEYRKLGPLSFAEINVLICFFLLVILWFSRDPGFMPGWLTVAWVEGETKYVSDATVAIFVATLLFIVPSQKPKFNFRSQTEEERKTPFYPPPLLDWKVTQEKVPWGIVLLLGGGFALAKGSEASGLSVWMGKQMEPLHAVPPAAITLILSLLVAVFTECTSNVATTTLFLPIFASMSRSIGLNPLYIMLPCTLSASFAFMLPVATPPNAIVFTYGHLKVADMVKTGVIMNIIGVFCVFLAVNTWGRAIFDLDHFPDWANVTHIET
T1 sequence (P43004 whole entry): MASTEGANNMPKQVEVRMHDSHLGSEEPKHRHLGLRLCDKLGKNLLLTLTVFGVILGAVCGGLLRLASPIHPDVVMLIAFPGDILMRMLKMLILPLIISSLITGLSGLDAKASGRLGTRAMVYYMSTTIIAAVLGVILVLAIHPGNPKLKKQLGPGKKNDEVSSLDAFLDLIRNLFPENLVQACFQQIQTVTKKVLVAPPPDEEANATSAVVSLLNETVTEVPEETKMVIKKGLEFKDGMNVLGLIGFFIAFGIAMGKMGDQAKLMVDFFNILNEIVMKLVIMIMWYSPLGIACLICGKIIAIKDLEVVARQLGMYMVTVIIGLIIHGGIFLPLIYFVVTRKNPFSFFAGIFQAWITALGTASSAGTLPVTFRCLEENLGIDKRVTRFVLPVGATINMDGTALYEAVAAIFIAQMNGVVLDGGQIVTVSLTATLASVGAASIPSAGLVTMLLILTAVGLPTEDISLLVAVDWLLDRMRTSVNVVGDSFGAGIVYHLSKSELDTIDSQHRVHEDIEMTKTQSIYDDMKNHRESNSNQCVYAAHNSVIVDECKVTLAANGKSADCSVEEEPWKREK

| Compound | IC50 (INDY [1]) [µM] | IC50 (GLT-1) [µM] | IC50 (GLUT1) [µM] | inhibition of Indy (Indy [2]) |
| --- | --- | --- | --- | --- |
| O=C(NCc1ccccc1F)C1CCN(S(=O)(=O)c2ccccc2)CC1 [Example 6, N-[(2-fluorophenyl)methyl]-1-(benzenesulfonyl) piperidine-4-carboxamide] | 5.7 | > 50 | > 50 | – |
| O=C(O)CC(O)(C(=O)O)C(O)C(=O)O (stereo not shown) [hydroxycitrate] | – | – | – | 30-40% |
